PubChem BioAssay (NCI)
“And” between values parts separate entries of the source, which are not always exact repeats. Equal values may be shown once.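 In this assay, cells in 96-well plates receive the compound at five concentrations for 48 hours. Endpoints are linearly interpolated between the surrounding concentrations. The concentration for 50% growth inhibition is given as GI50. TGI: total growth inhibition.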

Key:
Experiment in all cases: NCI tumour cell line growth inhibition, 48 h
DLD-1 colon = test system: DLD-1 colon
KM20L2 colon = test system: KM20L2 colon
LXFL 529 NSCLC = test system: LXFL 529 NSCLC
M19-MEL melanoma = test system: M19-MEL melanoma
MCF7 breast = test system: MCF7 breast
MDA-N = test system: MDA-N
P388 leukemia = test system: P388 leukemia
RXF-631 renal = test system: RXF-631 renal
SNB-78 CNS = test system: SNB-78 CNS
XF 498 CNS = test system: XF 498 CNS

SMILES	GI50 (DLD-1 colon) [µM]	TGI (DLD-1 colon)	TGI (KM20L2 colon)	GI50 (LXFL 529 NSCLC) [µM]	TGI (LXFL 529 NSCLC)	TGI (M19-MEL melanoma)	GI50 (MCF7 breast) [µM]	TGI (MCF7 breast)	TGI (MDA-N)	TGI (P388 leukemia) [µM]	GI50 (RXF-631 renal)	TGI (RXF-631 renal)	GI50 (SNB-78 CNS) [µM]	TGI (SNB-78 CNS)	TGI (XF 498 CNS) [µM]	GI50 (KM20L2 colon) [µM]	GI50 (M19-MEL melanoma) [µM]	GI50 (MDA-N) [µM]	GI50 (P388 leukemia) [µM]	GI50 (XF 498 CNS) [µM]
CCOC(=O)NC1=C(N2CC2)C(=O)C(NC(=O)OCC)=C(N2CC2)C1=O	8.56	38 µM and 78.9 µM	31.6 µM and 45.3 µM	4.34	15 µM and 9.51 µM	19.2 µM and 12.5 µM	6.33	25 µM and 21.3 µM	5.41 µM	14	6.73 µM and 14.4 µM	30.3 µM and 54.6 µM	9.36	24.2 µM and 28.5 µM	8.75					
CC(C)[NH-].CC(C)[NH-].O.O.[Cl][Pt+2][Cl]	45.1	238 µM	141 µM			77.1 µM	19.4	102 µM	106 µM	37.9			54.5	375 µM	51.6	15.2	21.3	17.4	6.66	16
OC(C1CO1)C(O)C1CO1 (stereo unspecified)		> 150 µM	150 µM			150 µM	3.89	140 µM and 78.2 µM	134 µM and 284 µM	150				150 µM	133			92.2		
